The assay deals with M. tuberculosis H37Rv growth inhibition with meropenem. Put plainly: dose response, H37Rv, with and without meropenem (AID 434987).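 Note: growth over 7 days at 37 °C before Alamar Blue read on day 9.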
Setting [1] is: M. tuberculosis H37Rv growth inhibition, measured here: IC50 without meropenem.
Where [2] appears, read: M. tuberculosis H37Rv growth inhibition, measured here: IC90 without meropenem.
[3] abbreviates: measured here: IC90 with meropenem.

Activity calls are given as the source filed them. The rule behind the calls is not given here.

For orientation: IC50 means the concentration at which inhibition is half-maximal. What is called IC90 is the point of the concentration-response curve where the effect stands at 90%.

For `Cc1ccc(C)c(SCC(=O)OCC(=O)N2CC(C)OC(C)C2)c1` (configuration not stated), the IC50 was 25.5 µM. The compound further yielded an IC50 under setting [1] of more than 100 µM. This compound gave an IC90 under setting [2] of more than 100 µM. Also, the 90% effect concentration (IC90) under setting [3] was more than 100 µM.

`CCOc1ccccc1C(=O)Nc1cccc(-c2ccc3nncn3n2)c1`: the IC50 was 65.3 µM (inactive). Also, the half-maximal inhibitory concentration (IC50) under setting [1] is more than 100 µM. This compound also registered an IC90 under setting [2] of more than 100 µM. The same compound showed an IC90 under setting [3] of more than 100 µM.

`COc1cc(/C=C/C(=O)NC(C)(C)C)ccc1OCc1ccccc1`: the IC50 is > 100 µM (inactive). The half-maximal inhibitory concentration (IC50) under setting [1] is more than 100 µM. In addition, the IC90 under setting [2] was more than 100 µM. Under setting [3], this compound gave a 90% effect concentration (IC90) of more than 100 µM.

Consider `O=C(CCSc1nnc(-c2ccncc2)o1)Nc1ccccc1Cl`, for which the IC50 is > 100 µM (inactive). Under setting [1], the IC50 was more than 100 µM. Moreover, under setting [2], the IC90 was more than 100 µM. Further, the IC90 under setting [3] was more than 100 µM.

On to `Cc1ccc(NC(=O)CSc2nnc([C@@H]3CCCN3C(=O)OC(C)(C)C)o2)c(C)c1`, for which the IC50 was 78.5 µM (inactive). Moreover, under setting [1], the IC50 stood at 86.5 µM. Besides, under setting [2], the IC90 is more than 100 µM. The IC90 under setting [3] is more than 100 µM.

With `Cc1ccc(SCc2c(C#N)c3ccccc3n2C)cc1`, the IC50 was > 100 µM (inactive). The same compound displayed an IC50 under setting [1] of more than 100 µM. The compound further gave a 90% effect concentration (IC90) under setting [2] of more than 100 µM. Under setting [3], this compound displayed an IC90 of more than 100 µM.

Regarding `Cc1ccc(CNC(=O)c2cn(C)c3ccc(S(=O)(=O)N4CCOCC4)cc3c2=O)cc1`, the IC50 is > 50 µM (inactive). Under setting [1], this compound registered an IC50 of more than 100 µM. Further, the concentration for an effect of 90% (IC90) under setting [2] was more than 100 µM. This compound also registered an IC90 under setting [3] of more than 50 µM.

In the case of `Cc1cccc(NC(=O)Cn2cnc3c(oc4ccccc43)c2=O)c1C`, the IC50 is > 100 µM (inactive). Under setting [1], this compound returned an IC50 of more than 100 µM. For the same compound, under setting [2], the concentration for an effect of 90% (IC90) was more than 100 µM. Also, the 90% effect concentration (IC90) under setting [3] was more than 100 µM.

With `COc1ccc([N+](=O)[O-])cc1NC(=O)c1ccc(Br)s1`, the IC50 was > 100 µM (inactive). This compound came in with a half-inhibitory concentration (IC50) under setting [1] of more than 100 µM. Moreover, the concentration for an effect of 90% (IC90) under setting [2] is more than 100 µM. This compound came in with an IC90 under setting [3] of more than 100 µM.

For `COc1ccc(OC)c(NC(=O)c2ccccc2SC)c1`, the 50% inhibitory concentration (IC50) was 19.8 µM. Besides, the concentration for half-maximal inhibition (IC50) under setting [1] worked out at 83 µM. This compound came in with an IC90 under setting [2] of more than 100 µM. Besides, under setting [3], the IC90 was more than 100 µM.

On to `CCOc1cc(N2CCOCC2)c(OCC)cc1NC(=O)COc1cccc(CC)c1`, for which the IC50 was > 100 µM (inactive). The compound also registered a half-inhibitory concentration (IC50) under setting [1] of more than 100 µM. Further, the IC90 under setting [2] was more than 100 µM. The same compound returned an IC90 under setting [3] of more than 100 µM.

As to `CCOC(=O)c1c(C)[nH]c(C)c1C(=O)COC(=O)/C=C/c1ccc(OC(F)F)cc1`, the IC50 is 61.1 µM (inactive). Under setting [1], this compound had an IC50 of 98.3 µM. In addition, the IC90 under setting [2] was more than 100 µM. This compound showed a concentration for an effect of 90% (IC90) under setting [3] of 91.4 µM.

As for `CC1(C)C2CC=C(/C=N/NC(=O)c3ccccc3O)C1C2` (configuration not stated), the IC50 is 65.7 µM (inactive). The IC50 under setting [1] was more than 100 µM. The compound also showed a concentration for an effect of 90% (IC90) under setting [2] of more than 100 µM. The 90% effect concentration (IC90) under setting [3] was more than 100 µM.

For the compound `CCOC(=O)c1sc2ccccc2c1NC(=O)c1coc2ccccc2c1=O`, the IC50 was > 100 µM (inactive). For the same compound, the IC50 under setting [1] is more than 100 µM. Besides, the IC90 under setting [2] was more than 100 µM. The concentration for an effect of 90% (IC90) under setting [3] was more than 100 µM.

As for `CC(=O)Nc1ccc(Nc2ncc([N+](=O)[O-])c(Nc3ccc(NC(C)=O)cc3)n2)cc1`, the half-maximal inhibitory concentration (IC50) is 0.423 µM. The compound also registered an IC50 under setting [1] of 2.43 µM. The compound further returned a concentration for an effect of 90% (IC90) under setting [2] of more than 100 µM. Also, under setting [3], the IC90 came out at 45.5 µM.

As to `CCc1ccc(NC(=S)Nc2ccc(S(=O)(=O)Nc3ncccn3)cc2)cc1`, the IC50 is 61.4 µM (inactive). This compound also had an IC50 under setting [1] of more than 100 µM. Under setting [2], the concentration for an effect of 90% (IC90) was more than 100 µM. The same compound showed an IC90 under setting [3] of more than 100 µM.

On to `CCc1nnc(NC(=O)c2ccc3nc(CC)c(CC)nc3c2)s1`, for which the IC50 is 46.6 µM (inactive). In addition, the half-maximal inhibitory concentration (IC50) under setting [1] was more than 100 µM. The IC90 under setting [2] is more than 100 µM. Also, the IC90 under setting [3] is more than 100 µM.

In the case of `c1ccc2c(c1)CC1CNCc3cccc(c31)S2` (configuration not stated), the IC50 is 47.4 µM (inactive). Moreover, under setting [1], the 50% inhibitory concentration (IC50) was more than 100 µM. Under setting [2], this compound returned a concentration for an effect of 90% (IC90) of more than 100 µM. This compound also registered a concentration for an effect of 90% (IC90) under setting [3] of more than 100 µM.

As for `CCc1ccc2nc(/N=C(\N)NC(=O)c3ccccc3)nc(C)c2c1`, the half-inhibitory concentration (IC50) is 1.02 µM. Under setting [1], this compound came in with a concentration for half-maximal inhibition (IC50) of 22.4 µM. Under setting [2], this compound showed a concentration for an effect of 90% (IC90) of more than 50 µM. The compound also had an IC90 under setting [3] of more than 100 µM.

In the case of `CCCCCn1c(=O)c(C(=O)NCc2ccncc2)c(O)c2ccccc21`, the IC50 is 35.3 µM (inactive). In addition, the IC50 under setting [1] was 81.4 µM. The compound also came in with an IC90 under setting [2] of more than 100 µM. For the same compound, the IC90 under setting [3] was more than 100 µM.

As to `O=C(CN1CCN(c2ccccn2)CC1)Nc1ccc(Cl)c(C(F)(F)F)c1`, the IC50 is 58.5 µM (inactive). Under setting [1], this compound yielded an IC50 of 90.1 µM. The same compound yielded an IC90 under setting [2] of more than 100 µM. Under setting [3], this compound gave a concentration for an effect of 90% (IC90) of more than 100 µM.

As to `O=C(O)CSc1ncnc2c1sc1nc(-c3ccccc3)c3c(c12)CCC3`, the IC50 was 12.2 µM. The compound also returned a 50% inhibitory concentration (IC50) under setting [1] of 61.9 µM. For the same compound, the IC90 under setting [2] is 87.4 µM. Also, under setting [3], the IC90 is 14.2 µM.

With `C=CCc1cc(Cl)ccc1OCCCNC(C)CC` (configuration not stated), the IC50 is 38.2 µM (inactive). The compound also registered an IC50 under setting [1] of 49.2 µM. The compound further gave a concentration for an effect of 90% (IC90) under setting [2] of 55.1 µM. The compound further gave an IC90 under setting [3] of 51.3 µM.

For the origin of these results see PubChem BioAssay AID434987 (Southern Research Specialized Biocontainment Screening …, 2010).
